In patent US4864023A, “Pyrido(3,2,1-IJ)-1,3,4-benzoxadiazine derivatives” (priority 1988, dated 1989):
Converted amounts (≈) assume the structure as drawn. Where two headings read alike, the source gives them in different places.

How the values were obtained:
Experiment in all cases: in vitro antibacterial activity, standard agar dilution method
Type in all cases: cell-based
[1] = tested on: Pseudomonas aeruginosa NR 2950; conditions: NR2950, aerobic, read-out: minimum inhibitory concentration (MIC)
[2] = tested on: Pseudomonas aeruginosa A3; conditions: aerobic, read-out: minimum inhibitory concentration (MIC)
[3] = tested on: Klebsiella pneumoniae FDA PCI 602; conditions: FDAPCI602, aerobic, read-out: minimum inhibitory concentration (MIC)
[4] = tested on: Bordetella bronchiseptica ATCC 4617; conditions: ATCC4617, aerobic, read-out: minimum inhibitory concentration (MIC)
[5] = tested on: Staphylococcus aureus FDA 209P JC-1; conditions: FDA209P, read-out: minimum inhibitory concentration (MIC)
[6] = tested on: Escherichia coli NIHJ JC-2; conditions: NIHJJC2, aerobic, read-out: minimum inhibitory concentration (MIC)
[7] = tested on: Bacillus subtilis PCI 219; conditions: PCI219, aerobic, read-out: minimum inhibitory concentration (MIC)
[8] = tested on: Enterococcus faecalis NR 2943; conditions: NR2943, aerobic, read-out: minimum inhibitory concentration (MIC)
[9] = tested on: Serratia marcescens IFO 12648; conditions: IFO12648, aerobic, read-out: minimum inhibitory concentration (MIC)
[10] = tested on: Staphylococcus aureus NR 2855; conditions: NR2855; Staphylococcus aureus NR 2855; aerobic; agar dilution; read-out: minimum inhibitory concentration (MIC)
[11] = tested on: Proteus rettgeri ATCC 14505; conditions: Providencia rettgeri, ATCC14505, aerobic, read-out: minimum inhibitory concentration (MIC)
[12] = tested on: Alcaligenes faecalis IFO 13111; conditions: IFO13111, aerobic, read-out: minimum inhibitory concentration (MIC)
[13] = tested on: Enterobacter cloacae NR 2946; conditions: NR2946, aerobic, read-out: minimum inhibitory concentration (MIC)
[14] = tested on: Citrobacter freundii IFO 12681; conditions: IFO12681, aerobic, read-out: minimum inhibitory concentration (MIC)
Escherichia coli NR 2630 = conditions: NR2630; Escherichia coli NR 2630; aerobic; agar dilution; read-out: minimum inhibitory concentration (MIC)
[15] = tested on: Staphylococcus aureus Smith; conditions: read-out: minimum inhibitory concentration (MIC)
[16] = tested on: Staphylococcus epidermidis IFO 12993; conditions: IFO12993, aerobic, read-out: minimum inhibitory concentration (MIC)
[17] = tested on: Pseudomonas stutzeri IFO 12695; conditions: Stutzerimonas stutzeri, IFO12695, aerobic, read-out: minimum inhibitory concentration (MIC)
[18] = tested on: Enterobacter aerogenes NR 2945; conditions: Klebsiella aerogenes, NR2945, aerobic, read-out: minimum inhibitory concentration (MIC)
[19] = tested on: Staphylococcus epidermidis NR 2942; conditions: NR2942, aerobic, read-out: minimum inhibitory concentration (MIC)
[20] = tested on: Salmonella typhimurium IFO 12529; conditions: Salmonella enterica, aerobic, read-out: minimum inhibitory concentration (MIC)
[21] = tested on: Proteus vulgaris OX19 ATCC 6898; conditions: ATCC6898, aerobic, read-out: minimum inhibitory concentration (MIC)
[22] = Staphylococcus aureus FDA 209P JC-1, aerobic, agar dilution
[23] = Staphylococcus aureus Smith, aerobic, agar dilution

| MIC [1] [µg/mL] | MIC [2] [µg/mL] | MIC [3] [µg/mL] | MIC [4] [µg/mL] | MIC [6] [µg/mL] | MIC [7] [µg/mL] | MIC [8] [µg/mL] | MIC [9] [µg/mL] | MIC [10] [µg/mL] | MIC [11] [µg/mL] | MIC [12] [µg/mL] | MIC [13] [µg/mL] | MIC [14] [µg/mL] | MIC (Escherichia coli NR 2630) [µg/mL] | MIC [16] [µg/mL] | MIC [17] [µg/mL] | MIC [18] [µg/mL] | MIC [19] [µg/mL] | MIC [20] [µg/mL] | MIC [21] [µg/mL] | SMILES | further results |
| --- | --- | --- | --- | --- | --- | --- | --- | --- | --- | --- | --- | --- | --- | --- | --- | --- | --- | --- | --- | --- | --- |
| 3.13 (≈ 8.32 µM) | 0.39 (≈ 1.04 µM) | 0.39 (≈ 1.04 µM) | 1.56 (≈ 4.14 µM) | 0.1 (≈ 0.266 µM) | 0.05 (≈ 0.133 µM) | 6.25 (≈ 16.6 µM) | 0.39 (≈ 1.04 µM) | 0.39 (≈ 1.04 µM) | 1.56 (≈ 4.14 µM) | 1.56 (≈ 4.14 µM) | 0.1 (≈ 0.266 µM) | 0.1 (≈ 0.266 µM) | 0.025 (≈ 0.0664 µM) | 0.39 (≈ 1.04 µM) | 0.1 (≈ 0.266 µM) | 0.025 (≈ 0.0664 µM) | 0.39 (≈ 1.04 µM) | 0.025 (≈ 0.0664 µM) | 0.025 (≈ 0.0664 µM) | CCNC1CCN(c2c(F)cc3c(=O)c(C(=O)O)cn4c3c2OCN4C)C1 (centres unmarked) [Example 32] | MIC [5, 22]: 0.2 µg/mL (≈ 0.531 µM); MIC [15, 23]: 0.1 µg/mL (≈ 0.266 µM) |
| 50 (≈ 133 µM) | 6.25 (≈ 16.6 µM) | 3.13 (≈ 8.32 µM) | 12.5 (≈ 33.2 µM) | 0.78 (≈ 2.07 µM) | 0.78 (≈ 2.07 µM) | 25 (≈ 66.4 µM) | 1.56 (≈ 4.14 µM) | 1.56 (≈ 4.14 µM) | 6.25 (≈ 16.6 µM) | 12.5 (≈ 33.2 µM) | 0.78 (≈ 2.07 µM) | 0.78 (≈ 2.07 µM) | 0.2 (≈ 0.531 µM) | 3.13 (≈ 8.32 µM) | 0.78 (≈ 2.07 µM) | 0.2 (≈ 0.531 µM) | 3.13 (≈ 8.32 µM) | 0.78 (≈ 2.07 µM) | 0.39 (≈ 1.04 µM) | CC1Oc2c(N3CCN(C)CC3)c(F)cc3c(=O)c(C(=O)O)cn(c23)N1C (centres unmarked) [Example 26] | MIC [5, 22]: 3.13 µg/mL (≈ 8.32 µM); MIC [15, 23]: 3.13 µg/mL (≈ 8.32 µM) |
| 25 (≈ 68.8 µM) | 6.25 (≈ 17.2 µM) | 3.13 (≈ 8.61 µM) | 1.56 (≈ 4.29 µM) | 0.1 (≈ 0.275 µM) | ≤ 0.0008 | 3.13 (≈ 8.61 µM) | 0.78 (≈ 2.15 µM) | ≤ 0.0008 | 6.25 (≈ 17.2 µM) | 12.5 (≈ 34.4 µM) | 0.2 (≈ 0.55 µM) | 0.78 (≈ 2.15 µM) | ≤ 0.0008 | 0.025 (≈ 0.0688 µM) | 0.013 (≈ 0.0358 µM) | 0.1 (≈ 0.275 µM) | ≤ 0.0008 | 0.2 (≈ 0.55 µM) | ≤ 0.0008 | COC1CCN(c2c(F)cc3c(=O)c(C(=O)O)cn4c3c2OCN4C)C1 (centres unmarked) [Example 37, 9-fluoro-10-(3-methoxy-1-pyrrolidinyl)-3-methyl-7-oxo-2,3-dihydro-7H-pyrido[3,2,1-ij]-1,3,4-benzoxadiazine-6-carboxylic acid] | MIC [5, 22]: 0.0016 µg/mL (≈ 0.0044 µM); MIC [15, 23]: ≤ 0.0008 µg/mL |

| SMILES | MIC [1] [µg/mL] | MIC [2] [µg/mL] | MIC [3] [µg/mL] | MIC [4] [µg/mL] | MIC [6] [µg/mL] | MIC [7] [µg/mL] | MIC [8] [µg/mL] | MIC [9] [µg/mL] | MIC [10] [µg/mL] | MIC [11] [µg/mL] | MIC [12] [µg/mL] | MIC [13] [µg/mL] | MIC [14] [µg/mL] | MIC (Escherichia coli NR 2630) [µg/mL] | MIC [16] [µg/mL] | MIC [17] [µg/mL] | MIC [18] [µg/mL] | MIC [19] [µg/mL] | MIC [20] [µg/mL] | MIC [21] [µg/mL] | further results |
| --- | --- | --- | --- | --- | --- | --- | --- | --- | --- | --- | --- | --- | --- | --- | --- | --- | --- | --- | --- | --- | --- |
| CN1COc2c(N3CCN(CS(=O)(=O)O)CC3)c(F)cc3c(=O)c(C(=O)O)cn1c23 [Example 52, disodium 9-fluoro-3-methyl-7-oxo-10-[4-(sulfonatomethyl)-1-piperazinyl]-2,3-dihydro-7H-pyrido-[3,2,1-ij]-1,3,4-benzoxadiazine-6-carboxylate] | 1.56 | 0.2 | 0.2 | 6.25 | 0.05 | 0.2 | 25 | 0.2 | 3.13 | 0.2 | 12.5 | 0.05 | 0.025 | 0.025 | 1.56 | 0.05 | 0.025 | 1.56 | 0.025 | 0.025 | MIC ([5]; Staphylococcus aureus): 0.39 µg/mL; MIC ([15]; Staphylococcus aureus): 0.39 µg/mL |
| CN1COc2c(N3CCC(Cl)C3)c(F)cc3c(=O)c(C(=O)O)cn1c23 (centres unmarked) [Example 59, 10-(3-chloro-1-pyrrolidinyl)-9-fluoro-3-methyl-7-oxo-2,3-dihydro-7H-pyrido[3,2,1-ij]-1,3,4-benzoxadiazine-6-carboxylic acid] | 25 (≈ 68 µM) | 3.13 (≈ 8.51 µM) | 3.13 (≈ 8.51 µM) | 3.13 (≈ 8.51 µM) | 1.56 (≈ 4.24 µM) | 0.0065 (≈ 0.0177 µM) | 3.13 (≈ 8.51 µM) | 3.13 (≈ 8.51 µM) | 0.1 (≈ 0.272 µM) | 3.13 (≈ 8.51 µM) | 6.25 (≈ 17 µM) | 0.78 (≈ 2.12 µM) | 1.56 (≈ 4.24 µM) | 0.39 (≈ 1.06 µM) | 0.39 (≈ 1.06 µM) | 1.56 (≈ 4.24 µM) | 0.78 (≈ 2.12 µM) | 0.2 (≈ 0.544 µM) | 1.56 (≈ 4.24 µM) | 0.2 (≈ 0.544 µM) | MIC ([5]; Staphylococcus aureus): 0.39 µg/mL (≈ 1.06 µM); MIC [15, 23]: 0.05 µg/mL (≈ 0.136 µM) |
